Columns and labels:
Assay type in all cases: functional, cell-based
CCRF-CEM = experiment: In vitro cytotoxic effect of compound was measured against CCRF-CEM human lymphoblastoid cells.
HT-29 = experiment: In vitro cytotoxic effect of compound was measured against HT-29 tumor cells.; settings: Homo sapiens
L1210 = experiment: In vitro cytotoxic effect of compound was measured against L1210/0 tumor cells in mouse

What does the source list for COc1ccc(C(=O)C#Cc2cn(COCCO)c(=O)[nH]c2=O)cc1?
IC50 (CCRF-CEM): 1.6 µM; IC50 (HT-29): 20 µM; IC50 (L1210): 1.5 µM

Which results are given for Cc1ccccc1C(=O)C#Cc1cn(COCCO)c(=O)[nH]c1=O?
IC50 (CCRF-CEM): 0.9 µM; IC50 (HT-29): 25 µM; IC50 (L1210): 2.2 µM

Which IC50 (CCRF-CEM) does the source give for Cc1cccc(C(=O)C#Cc2cn(COCCO)c(=O)[nH]c2=O)c1 here?
The IC50 was 0.6 µM.

What about the IC50 (HT-29) of the same compound?
The IC50 was 14 µM.

What about the IC50 (L1210) of the same compound?
Its IC50 is 0.7 µM.

Cc1ccc(C(=O)C#Cc2cn(COCCO)c(=O)[nH]c2=O)cc1 was tested. Which IC50 (CCRF-CEM) did it give?
The IC50 was 0.7 µM.

And the IC50 (HT-29)?
The IC50 was 8 µM.

And the IC50 (L1210)?
Its IC50 is 0.9 µM.
